Reference: article PMC10930102 (Journal of Enzyme Inhibition and Medicinal Chemistry, 2024)
Read-outs that look alike come from different tables or passages of the source.

Assays:
IGF1R = target: T1, IGF1R (Homo sapiens, UniProt P08069); parameters: method as in PMID 22734674; conditions: cited from earlier work
T1 construct: purchased Reaction Biology Corporation

c-Src = target: T2, c-Src (Homo sapiens, UniProt P12931); parameters: method as in PMID 22734674; conditions: cited from earlier work
T2 construct: purchased Reaction Biology Corporation

ALK = target: T3, ALK (Homo sapiens, UniProt Q9UM73); assay: ALK in vitro enzymatic assay (radioisotope P81 filter-binding, Reaction Biology); format: biochemical
T3 construct: purchased Reaction Biology Corporation

HDAC1 = target: T4, HDAC1 (Homo sapiens, UniProt Q13547); assay: HDAC inhibition assay (fluorogenic peptide, Reaction Biology); format: biochemical; conditions: tested once, ten-dose starting at 30 µM
T4 construct: purchased Reaction Biology Corporation; host or cells: baculovirus expression system in SF9 cells

HDAC6 = target: T5, HDAC6 (Homo sapiens, UniProt Q9UBN7); assay: as above; format: biochemical; conditions: tested once, ten-dose starting at 30 µM
T5 construct: purchased Reaction Biology Corporation; host or cells: baculovirus expression system in SF9 cells
T5 sequence (Q9UBN7 1-1215): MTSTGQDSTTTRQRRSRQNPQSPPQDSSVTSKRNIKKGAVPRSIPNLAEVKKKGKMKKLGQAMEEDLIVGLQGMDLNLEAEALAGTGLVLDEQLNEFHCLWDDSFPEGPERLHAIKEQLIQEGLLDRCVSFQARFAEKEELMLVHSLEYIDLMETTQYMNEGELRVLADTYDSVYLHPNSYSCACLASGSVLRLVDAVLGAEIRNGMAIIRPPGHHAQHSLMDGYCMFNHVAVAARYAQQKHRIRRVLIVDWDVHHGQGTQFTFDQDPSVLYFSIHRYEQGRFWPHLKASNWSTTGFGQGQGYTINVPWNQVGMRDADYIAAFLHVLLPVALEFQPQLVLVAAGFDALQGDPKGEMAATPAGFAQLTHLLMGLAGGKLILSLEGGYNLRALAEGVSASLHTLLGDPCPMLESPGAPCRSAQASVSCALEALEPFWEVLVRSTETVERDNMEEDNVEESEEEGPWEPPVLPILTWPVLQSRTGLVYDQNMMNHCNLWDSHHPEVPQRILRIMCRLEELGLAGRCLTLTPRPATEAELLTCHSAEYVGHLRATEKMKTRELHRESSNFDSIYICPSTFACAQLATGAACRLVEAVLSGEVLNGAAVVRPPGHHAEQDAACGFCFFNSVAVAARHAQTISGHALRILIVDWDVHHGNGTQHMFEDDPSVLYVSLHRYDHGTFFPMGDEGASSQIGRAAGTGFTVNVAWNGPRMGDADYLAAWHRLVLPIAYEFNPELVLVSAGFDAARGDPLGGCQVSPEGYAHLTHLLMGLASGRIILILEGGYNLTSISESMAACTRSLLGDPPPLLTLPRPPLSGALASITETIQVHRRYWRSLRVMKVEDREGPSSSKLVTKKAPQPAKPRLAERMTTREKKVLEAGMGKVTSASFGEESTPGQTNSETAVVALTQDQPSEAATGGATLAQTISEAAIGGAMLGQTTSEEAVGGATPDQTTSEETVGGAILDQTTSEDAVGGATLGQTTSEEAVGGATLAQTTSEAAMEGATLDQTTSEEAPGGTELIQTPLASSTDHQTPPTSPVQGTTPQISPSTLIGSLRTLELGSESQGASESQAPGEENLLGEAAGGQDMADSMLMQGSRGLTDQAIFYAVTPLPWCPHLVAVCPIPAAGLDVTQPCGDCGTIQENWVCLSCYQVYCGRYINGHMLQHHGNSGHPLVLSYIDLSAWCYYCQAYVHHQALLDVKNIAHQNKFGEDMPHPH

HDAC8 = target: T6, HDAC8 (Homo sapiens, UniProt Q9BY41); assay: HDAC inhibition assay (fluorogenic diacylpeptide, Reaction Biology); format: biochemical; conditions: tested once, ten-dose starting at 30 µM
T6 construct: purchased Reaction Biology Corporation; host or cells: baculovirus expression system in SF9 cells
T6 sequence (Q9BY41 1-377): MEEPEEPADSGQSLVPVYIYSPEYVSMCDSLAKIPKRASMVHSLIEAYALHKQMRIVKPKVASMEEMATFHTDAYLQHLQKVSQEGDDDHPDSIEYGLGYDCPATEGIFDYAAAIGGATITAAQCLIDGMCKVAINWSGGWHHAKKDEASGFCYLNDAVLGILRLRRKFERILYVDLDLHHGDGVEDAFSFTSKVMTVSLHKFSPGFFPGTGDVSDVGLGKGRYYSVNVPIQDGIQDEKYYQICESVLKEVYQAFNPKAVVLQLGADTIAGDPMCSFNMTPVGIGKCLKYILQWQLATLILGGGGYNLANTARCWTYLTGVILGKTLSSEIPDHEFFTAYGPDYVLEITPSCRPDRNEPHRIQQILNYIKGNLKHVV

HDAC11 = target: T7, HDAC11 (Homo sapiens, UniProt Q96DB2); assay: HDAC inhibition assay (fluorogenic peptide, Reaction Biology); format: biochemical; conditions: tested once, ten-dose starting at 30 µM
T7 construct: purchased Reaction Biology Corporation; host or cells: baculovirus expression system in SF9 cells
T7 sequence (Q96DB2 1-347): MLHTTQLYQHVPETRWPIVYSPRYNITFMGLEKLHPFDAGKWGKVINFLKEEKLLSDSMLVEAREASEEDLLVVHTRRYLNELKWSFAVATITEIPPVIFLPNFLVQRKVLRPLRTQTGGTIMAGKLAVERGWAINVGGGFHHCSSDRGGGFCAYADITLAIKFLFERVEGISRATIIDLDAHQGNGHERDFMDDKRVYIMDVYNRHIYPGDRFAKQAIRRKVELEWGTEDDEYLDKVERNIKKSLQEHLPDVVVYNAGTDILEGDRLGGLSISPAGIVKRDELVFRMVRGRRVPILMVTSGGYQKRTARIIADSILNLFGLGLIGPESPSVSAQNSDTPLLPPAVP

A549 = assay: SRB antiproliferation assay; format: cell-based; conditions: Homo sapiens, 48 h, read-out: Antiproliferative activity (IC50) A549
MCF7 = assay: SRB antiproliferation assay; format: cell-based; conditions: Homo sapiens, 48 h, read-out: Antiproliferative activity (IC50) MCF7
U87MG = assay: SRB antiproliferation assay; format: cell-based; conditions: Homo sapiens, U-87 MG, 48 h, read-out: Antiproliferative activity (IC50) U87MG
H2228 = assay: SRB antiproliferation assay; format: cell-based; conditions: Homo sapiens, NCI-H2228, 48 h, ALK-addicted cells, read-out: Antiproliferative activity (IC50) H2228
[1] = system: phosphorylation level of Y1604 on ALK; assay: Western blot of ALK phosphorylation in H2228 cells; format: cell-based, human; conditions: 6 h, 3b 2 µM, 3c 4 µM
Text: (§1) Figure 4. Effect of test compounds on H2228 cells. […] (A) Western blots of phosphorylated tyrosine residue 1640 on ALK as well as acetylated (Ac) α-tubulin and histone H3 with their corresponding total proteins for normalisation. GAPDH was used as a loading control. (B) Quantification of western blotting results using Image J. Error bars indicate ± S.D.E. *p-Value ≤ 0.05, **p-value ≤ 0.01, ***p-value ≤ 0.001.
(§2) Treated cells were washed three times with ice-cold phosphate-buffered saline and lysed in lysis buffer containing 100 mM Tris-HCl, 12 mM sodium deoxycholate, 12 mM sodium lauroylsarcosinate, and protease inhibitor cocktail (BioTools). Cells were heated in lysis buffer at 95 °C for 5 min and then the cell membrane was broken up by sonication (Bioruptor). Cellular debris and unbroken cells were removed by centrifugation (12,500 × g for 30 min, 4 °C). Protein concentration was determined using the bicinchoninic acid assay (Thermo). Cell extracts (20 μg) were resolved by 12% sodium dodecyl sulfate-polyacrylamide gel electrophoresis (SDS-PAGE), transferred to PVDF membranes, and probed separately with antibodies for Ac-histone H3, Ac-α-tubulin, histone H3, α-tubulin, HDAC1, HDAC6, HDAC8 and GAPDH. The antibodies of GAPDH, HDAC1, and HDAC8 were purchased from ABclonal and all other antibodies were from Cell Signalling Technology. Antibody signals were detected using an enhanced chemiluminescence system.

[2] = system: protein expression level of HDAC1, HDAC6, or HDAC8; assay: Western blot of HDAC protein expression; format: cell-based, human; conditions: western blot after treatment (supplemental Figure S3)
Description: as §2
Figure S3. Western blots of HDAC1, HDAC6, and HDAC8 after drug treatment and vehicle control
activity was assessed by MTS assay, and the concentration of inhibitors was determined to be half of their
was tested five times, and the results were normalized to 1. (blank) […]

CYP1A2 = target: T8, CYP1A2 (Homo sapiens, UniProt P05177); assay: CYP450 inhibition assay; format: in vitro ADME; conditions: human recombinant enzyme
T8 construct: purchased Reaction Biology Corporation; host or cells: CYP cDNA baculovirus expression systems

CYP2C19 = target: T9, CYP2C19 (Homo sapiens, UniProt P33261); assay: CYP450 inhibition assay; format: in vitro ADME; conditions: human recombinant enzyme
T9 construct: purchased Reaction Biology Corporation; host or cells: CYP cDNA baculovirus expression systems
Description: Assays were performed by Reaction Biology Corporation. […] CYP assays used human recombinant CYP1A2, CYP2C9, CYP2C19, CYP2D6, and CYP3A4 expressed in CYP cDNA baculovirus expression systems. […] Substrates used were 3-cyano-7-ethoxycoumarin for CYP1A2, 2C19, and 2D6; Vivid OOMR Substrate for CYP2C9; and Vivid BOMR Substrate for CYP3A4. hERG inhibition assays involved a binding competition between the tested compounds and a fluorescently labelled compound tracer (Predictor hERG Tracer Red) for membrane-bound hERG (Predictor hERG Membrane). E-4031 served as the positive control.

[3] = system: acetylated histone H3, a substrate of class I HDAC; assay: Western blot of acetylated histone H3 in H2228 cells; format: cell-based, human; conditions: 6 h, 3b 2 µM
Text: as §1
as §2, with “The antibodies of GAPDH, HDAC1, and HDAC8 were purchased from ABclonal and all other antibodies were from Cell Signalling Technology.” left out

[4] = 20 μM ATP, ten-dose IC50 mode, duplicate, average

T3 sequence (Q9UM73 19-1620): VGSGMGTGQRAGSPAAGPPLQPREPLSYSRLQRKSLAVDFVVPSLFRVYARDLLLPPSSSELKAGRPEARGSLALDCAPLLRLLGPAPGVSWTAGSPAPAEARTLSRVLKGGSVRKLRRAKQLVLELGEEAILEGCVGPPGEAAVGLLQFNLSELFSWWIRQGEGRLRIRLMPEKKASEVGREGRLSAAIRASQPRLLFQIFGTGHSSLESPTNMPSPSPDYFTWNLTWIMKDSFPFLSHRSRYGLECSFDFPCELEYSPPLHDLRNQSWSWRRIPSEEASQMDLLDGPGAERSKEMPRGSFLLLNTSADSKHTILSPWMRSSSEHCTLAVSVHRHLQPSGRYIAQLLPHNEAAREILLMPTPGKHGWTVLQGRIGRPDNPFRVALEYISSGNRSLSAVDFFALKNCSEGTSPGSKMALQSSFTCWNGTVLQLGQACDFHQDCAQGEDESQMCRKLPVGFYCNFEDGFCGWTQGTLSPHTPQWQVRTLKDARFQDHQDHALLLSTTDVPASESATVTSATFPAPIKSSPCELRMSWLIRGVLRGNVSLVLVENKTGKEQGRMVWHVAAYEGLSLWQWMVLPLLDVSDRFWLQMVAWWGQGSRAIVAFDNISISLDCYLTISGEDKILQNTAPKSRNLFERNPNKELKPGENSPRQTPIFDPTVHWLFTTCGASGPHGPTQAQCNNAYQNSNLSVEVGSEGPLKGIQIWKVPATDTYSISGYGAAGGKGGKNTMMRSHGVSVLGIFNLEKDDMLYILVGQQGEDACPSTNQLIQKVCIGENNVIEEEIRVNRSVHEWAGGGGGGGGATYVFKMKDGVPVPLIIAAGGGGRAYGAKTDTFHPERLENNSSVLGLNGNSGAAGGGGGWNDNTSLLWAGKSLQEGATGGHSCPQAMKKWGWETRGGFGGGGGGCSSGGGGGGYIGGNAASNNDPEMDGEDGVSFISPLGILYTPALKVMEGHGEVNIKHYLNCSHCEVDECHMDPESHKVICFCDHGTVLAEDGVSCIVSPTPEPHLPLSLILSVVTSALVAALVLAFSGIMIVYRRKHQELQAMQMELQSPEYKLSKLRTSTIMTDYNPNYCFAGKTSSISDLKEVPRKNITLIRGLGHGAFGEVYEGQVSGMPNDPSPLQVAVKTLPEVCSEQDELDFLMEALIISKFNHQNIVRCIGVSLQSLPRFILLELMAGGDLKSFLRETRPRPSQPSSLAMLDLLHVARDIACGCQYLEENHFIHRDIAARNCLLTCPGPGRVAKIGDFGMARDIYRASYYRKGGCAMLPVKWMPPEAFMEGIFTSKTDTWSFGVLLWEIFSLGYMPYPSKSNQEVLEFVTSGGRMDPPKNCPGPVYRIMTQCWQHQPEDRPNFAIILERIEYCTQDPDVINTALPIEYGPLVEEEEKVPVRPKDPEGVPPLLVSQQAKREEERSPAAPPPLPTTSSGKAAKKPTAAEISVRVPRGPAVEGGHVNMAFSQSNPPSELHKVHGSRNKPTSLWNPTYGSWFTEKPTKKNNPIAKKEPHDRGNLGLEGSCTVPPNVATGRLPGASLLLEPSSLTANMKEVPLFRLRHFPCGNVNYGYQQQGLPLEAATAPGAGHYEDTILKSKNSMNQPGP
T4 sequence (Q13547 whole entry): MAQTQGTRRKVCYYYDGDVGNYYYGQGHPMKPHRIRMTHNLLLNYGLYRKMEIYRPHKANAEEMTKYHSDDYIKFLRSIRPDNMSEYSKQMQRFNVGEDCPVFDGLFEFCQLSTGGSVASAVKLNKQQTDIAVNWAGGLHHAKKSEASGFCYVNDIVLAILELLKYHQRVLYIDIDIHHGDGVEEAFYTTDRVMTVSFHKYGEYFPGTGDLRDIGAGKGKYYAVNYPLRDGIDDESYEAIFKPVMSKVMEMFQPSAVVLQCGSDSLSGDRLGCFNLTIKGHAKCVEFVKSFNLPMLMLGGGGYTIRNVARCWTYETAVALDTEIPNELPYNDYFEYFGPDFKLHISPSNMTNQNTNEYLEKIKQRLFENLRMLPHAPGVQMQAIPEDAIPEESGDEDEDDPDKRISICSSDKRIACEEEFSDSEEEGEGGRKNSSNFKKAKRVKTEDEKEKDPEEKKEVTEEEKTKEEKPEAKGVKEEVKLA
T2 sequence (P12931 whole entry): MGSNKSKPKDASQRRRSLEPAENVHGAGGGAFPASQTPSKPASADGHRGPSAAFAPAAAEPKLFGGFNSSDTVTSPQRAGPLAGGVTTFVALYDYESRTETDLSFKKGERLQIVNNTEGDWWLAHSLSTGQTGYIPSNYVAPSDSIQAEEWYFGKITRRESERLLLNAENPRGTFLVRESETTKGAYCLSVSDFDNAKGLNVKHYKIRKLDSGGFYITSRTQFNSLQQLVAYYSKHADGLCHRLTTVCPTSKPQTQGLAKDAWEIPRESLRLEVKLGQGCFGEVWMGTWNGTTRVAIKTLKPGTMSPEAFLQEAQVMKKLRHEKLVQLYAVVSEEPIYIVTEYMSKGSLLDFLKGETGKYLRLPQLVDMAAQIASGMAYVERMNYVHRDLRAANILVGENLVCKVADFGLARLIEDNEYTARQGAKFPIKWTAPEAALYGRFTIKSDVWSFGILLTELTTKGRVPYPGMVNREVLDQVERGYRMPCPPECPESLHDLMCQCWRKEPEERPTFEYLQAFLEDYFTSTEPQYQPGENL
T9 sequence (P33261 whole entry): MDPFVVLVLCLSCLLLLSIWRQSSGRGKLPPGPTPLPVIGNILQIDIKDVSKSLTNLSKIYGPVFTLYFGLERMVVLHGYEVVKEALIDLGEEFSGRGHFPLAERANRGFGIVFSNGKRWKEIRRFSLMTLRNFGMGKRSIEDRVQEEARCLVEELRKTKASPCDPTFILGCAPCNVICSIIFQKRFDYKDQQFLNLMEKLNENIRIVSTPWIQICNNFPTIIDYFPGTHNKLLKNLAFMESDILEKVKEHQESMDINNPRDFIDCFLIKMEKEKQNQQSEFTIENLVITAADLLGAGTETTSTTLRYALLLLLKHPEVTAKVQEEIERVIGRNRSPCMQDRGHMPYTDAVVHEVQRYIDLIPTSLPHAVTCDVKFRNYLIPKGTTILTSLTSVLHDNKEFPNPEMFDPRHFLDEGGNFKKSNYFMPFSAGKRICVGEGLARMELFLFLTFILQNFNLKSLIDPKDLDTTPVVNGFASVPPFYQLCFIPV
T1 sequence (P08069 31-1367): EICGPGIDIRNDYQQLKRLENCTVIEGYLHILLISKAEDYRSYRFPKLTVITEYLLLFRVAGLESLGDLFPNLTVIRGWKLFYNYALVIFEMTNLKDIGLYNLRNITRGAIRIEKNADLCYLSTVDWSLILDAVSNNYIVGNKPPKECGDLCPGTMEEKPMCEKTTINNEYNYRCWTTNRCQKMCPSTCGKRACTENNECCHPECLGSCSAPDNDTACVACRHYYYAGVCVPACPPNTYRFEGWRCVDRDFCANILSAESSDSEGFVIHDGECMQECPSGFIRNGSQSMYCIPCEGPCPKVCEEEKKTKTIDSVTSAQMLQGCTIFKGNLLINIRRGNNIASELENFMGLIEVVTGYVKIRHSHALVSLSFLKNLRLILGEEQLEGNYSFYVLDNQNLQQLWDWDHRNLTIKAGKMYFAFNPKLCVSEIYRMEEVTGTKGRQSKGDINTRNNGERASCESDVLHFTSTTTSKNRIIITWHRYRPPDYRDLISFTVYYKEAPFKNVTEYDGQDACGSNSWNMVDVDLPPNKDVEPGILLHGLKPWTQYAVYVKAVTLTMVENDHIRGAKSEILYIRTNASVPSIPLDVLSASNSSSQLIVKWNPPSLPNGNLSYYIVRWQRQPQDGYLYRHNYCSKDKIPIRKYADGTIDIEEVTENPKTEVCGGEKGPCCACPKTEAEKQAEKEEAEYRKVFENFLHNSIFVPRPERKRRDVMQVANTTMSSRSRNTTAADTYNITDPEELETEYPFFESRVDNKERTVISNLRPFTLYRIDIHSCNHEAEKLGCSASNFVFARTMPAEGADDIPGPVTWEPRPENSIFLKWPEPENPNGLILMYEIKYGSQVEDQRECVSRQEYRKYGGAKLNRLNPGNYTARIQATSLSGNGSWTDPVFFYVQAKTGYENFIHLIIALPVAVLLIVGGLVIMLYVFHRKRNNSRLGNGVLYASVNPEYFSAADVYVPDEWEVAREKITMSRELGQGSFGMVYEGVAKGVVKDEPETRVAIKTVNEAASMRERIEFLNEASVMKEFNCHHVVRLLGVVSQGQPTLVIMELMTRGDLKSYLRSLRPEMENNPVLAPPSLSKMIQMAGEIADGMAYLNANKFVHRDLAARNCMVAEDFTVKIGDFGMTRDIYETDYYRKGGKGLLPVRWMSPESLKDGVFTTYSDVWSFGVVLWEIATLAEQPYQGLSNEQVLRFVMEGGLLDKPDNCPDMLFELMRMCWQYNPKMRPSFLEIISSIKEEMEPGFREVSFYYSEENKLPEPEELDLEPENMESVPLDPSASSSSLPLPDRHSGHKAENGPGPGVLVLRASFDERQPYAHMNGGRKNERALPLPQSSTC
T8 sequence (P05177 whole entry): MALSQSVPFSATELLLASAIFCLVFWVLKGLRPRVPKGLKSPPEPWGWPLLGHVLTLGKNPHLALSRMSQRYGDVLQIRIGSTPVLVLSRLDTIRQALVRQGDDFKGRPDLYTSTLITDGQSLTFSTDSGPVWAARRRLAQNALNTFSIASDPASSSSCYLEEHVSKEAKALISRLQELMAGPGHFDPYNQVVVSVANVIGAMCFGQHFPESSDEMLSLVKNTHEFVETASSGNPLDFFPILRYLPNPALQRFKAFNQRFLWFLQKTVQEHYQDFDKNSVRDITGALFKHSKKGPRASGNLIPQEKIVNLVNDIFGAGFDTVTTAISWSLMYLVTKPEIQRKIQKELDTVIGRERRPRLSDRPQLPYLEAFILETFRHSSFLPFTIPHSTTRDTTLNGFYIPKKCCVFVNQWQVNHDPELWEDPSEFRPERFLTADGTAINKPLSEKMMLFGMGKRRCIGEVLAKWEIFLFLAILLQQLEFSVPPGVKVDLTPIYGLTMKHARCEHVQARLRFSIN

| Structure (SMILES) | IC50 (ALK; [4]) | IC50 (HDAC1) | IC50 (HDAC6) | IC50 (HDAC8) | IC50 (HDAC11) | IC50 (H2228) | further results |
| --- | --- | --- | --- | --- | --- | --- | --- |
| CC(C)NC(=O)[C@H]1CC[C@@H](n2/c(=N/C(=O)c3cc(F)cc(F)c3)[nH]c3ccc(CN4CCC(C(C)(C)O)CC4)cc32)CC1 [Compound 1] |  |  |  |  |  |  | IC50 (IGF1R): 100 nM; IC50 (c-Src): 420 nM |
| CC(C)NC(=O)CCCn1/c(=N/C(=O)c2ccccc2)[nH]c2cc(/C=C/C(=O)NO)ccc21 [Compound 3a, (E)-N-(5-((E)-3-(Hydroxyamino)-3-oxoprop-1-en-1-yl)-1–(4-(isopropylamino)-4-oxobutyl)-1H-benzo[d]imidazol-2(3H)-ylidene)benzamide] | 5750 nM | 6180 nM | 810 nM | 2950 nM | 9350 nM |  |  |
| CC(C)NC(=O)[C@H]1CC[C@@H](n2/c(=N/C(=O)c3ccccc3)[nH]c3ccc(/C=C/C(=O)NO)cc32)CC1 [Compound 3c, (E)-N-(6-((E)-3-(Hydroxyamino)-3-oxoprop-1-en-1-yl)-1-((1S,4S)-4-(isopropylcarbamoyl)cyclohexyl)-1H-benzo[d]imidazol-2(3H)-ylidene)benzamide] | 5.2 nM | > 30000 nM | 2340 nM | 2870 nM | > 30000 nM | 210 ± 70 nM | IC50 (ALK): 15 nM; fold greater ALK inhibition ability (ALK; hydroxamate moved from C-5 to C-6 position (versus 3b)): 3 fold; IC50 (A549): 7260 ± 2660 nM; IC50 (MCF7): 980 ± 30 nM; IC50 (U87MG): 11100 ± 810 nM; phosphorylation level of Y1604 on ALK [1]: significantly decreased; protein expression level of HDAC1, HDAC6, or HDAC8 [2]: not perturbed |
| CC(C)NC(=O)CCCn1/c(=N/C(=O)c2cc(F)cc(F)c2)[nH]c2cc(/C=C/C(=O)NO)ccc21 [Compound 3d, (E)-3,5-Difluoro-N-(5-((E)-3-(hydroxyamino)-3-oxoprop-1-en-1-yl)-1–(4-(isopropylamino)-4-oxobutyl)-1H-benzo[d]imidazol-2(3H)-ylidene)benzamide] | 3730 nM | > 30000 nM | 2470 nM | 7770 nM | > 30000 nM |  |  |
| CCCC(=O)/N=c1\[nH]c2cc(/C=C/C(=O)NO)ccc2n1CCCC(=O)NC(C)C [Compound 3e, 4-((E)-2-(butyrylimino)-5-((E)-3-(hydroxyamino)-3-oxoprop-1-en-1-yl)-2,3-dihydro-1H-benzo[d]imidazol-1-yl)-N-isopropylbutanamide] | > 10000 nM | 840 nM | 210 nM | 1780 nM | 1420 nM |  |  |
| CC(C)NC(=O)[C@H]1CC[C@@H](n2/c(=N/C(=O)c3ccccc3)[nH]c3cc(NC(=O)CCCCCCC(=O)NO)ccc32)CC1 [Compound 3f] | 15 nM | 2290 nM | 100 nM | 2520 nM | 1720 nM |  |  |
| CC(C)NC(=O)CCCn1/c(=N/C(=O)c2ccccc2)[nH]c2cc(Br)ccc21 [Compound 6, (E)-N-(5-Bromo-1–(4-(isopropylamino)-4-oxobutyl)-1H-benzo[d]imidazol-2(3H)-ylidene)benzamide] |  |  |  |  |  |  | inhibition at 10 µM (ALK; single dose at 10 μM, duplicate, average, read-out: ALK relative inhibition of enzymatic activity): 18.8% |
| C[C@@H](Oc1cc(-c2cnn(C3CCNCC3)c2)cnc1N)c1c(Cl)ccc(F)c1Cl [Crizotinib, reference compound] |  |  |  |  |  | 130 ± 50 nM | IC50 (MCF7): 95 ± 24 nM; IC50 (U87MG): 48 ± 8 nM |
| CC(=O)N1CCN(c2ccc(OCC3COC(Cn4ccnc4)(c4ccc(Cl)cc4Cl)O3)cc2)CC1 (centres unmarked) [Ketoconazole, reference compound] |  |  |  |  |  |  | IC50 (CYP1A2): 590 nM; IC50 (CYP2C19): 1300 nM |
| CCCCc1nc2cc(/C=C/C(=O)NO)ccc2n1CCN(CC)CC [Pracinostat (2), Pracinostat, reference compound] |  |  |  |  |  | 690 ± 50 nM | phosphorylation level of Y1604 on ALK [1]: enhanced the ALK kinase activity; acetylated histone H3 level [3]: highest level of acetylated histone |
